# Results: patent US20220409573A1, “Hippocampus Regeneration And Memory Recovery” (INNOBIOSCIENCE, LLC, priority 2021, published 2022)
# “Also recorded” adds a separate entry of the source.
# Key:
# [1] = test system: Aβ oligomers in the hippocampus of APPswe/PS-1 mice; experiment: Slot blot of Aβ oligomers with A11 antibody; format: in vivo
# [2] = test system: synaptic proteins in hippocampus and cortex of APPswe/PS-1 mice; experiment: Immunoblotting of synaptic proteins in treated APPswe/PS-1 mice; format: in vivo
# Wnt target genes = experiment: PCR array of Wnt target genes in hippocampal neurons; format: cell-based, rat
# Experimental: Primary culture of rat hippocampal neurons. […] PCR-ARRAY. RNA from hippocampal neurons was extracted using Trizol. Quantification and purity of RNA preparations were checked by absorbance using Nanodrop ND-2000. Only preparations with a 260/280 nm ratio≥1.8, a 260/230 nm ratio ≥1,7 and no sign of RNA degradations, verified by agarose gel electrophoresis with Gel Red TM were used. Genomic DNA was degraded. Using RT2First-Strand cDNA Synthesis kit (SuperArray), 1 μg total RNA was reverse transcribed and then real-time PCR was performed by adding cDNA directly to PCR Master Mix, containing SYBR Green and ROX. The mixtures were then aliquoted into a 96-well PCR array plates, which profiles the expression of 84 Wnt target genes from rat. The PCR was run on ABI StepOnePlus, with 1 cycle of 10 min at 95° C. followed by 40 cycles of 15 s at 95° C. and 1 min at 60° C.
# Treatment of neuronal cultures. Primary hippocampal cultures of neurons 14 DIV were washed twice in neurobasal medium and maintained for 1 hour.
# [3] = test system: Aβ aggregates in brain of APPswe/PS-1 mice; experiment: Thioflavine-S staining of amyloid plaques in treated APPswe/PS-1 mice; format: in vivo
# [4] = test system: Wnt/β-catenin pathway in hippocampal slices; experiment: β-catenin, GSK-3β and Dvl-3 western blot in hippocampal slices of wild-type mice; format: cell-based
# Experimental: Slice preparation. […] Transverse slices (250-300 μm) from the dorsal hippocampus were cut under oxygen-saturated cold artificial cerebrospinal fluid using a Vibroslice microtome (VSL, World Precision Instruments, Inc WPI, Sarasota, Fla.). After obtained, slices were incubated in ACSF for at least than one hour at room temperature, in order to stabilize activity.
# Immunoblotting. […] Briefly, tissues were homogenized in RIPA buffer (10 mM Tris-Cl, pH 7.4, EDTA 5 mM, 1% NP-40, 1% sodium deoxycholate, and 1% SDS) supplemented with a protease inhibitor mixture (1 mM PMSF, 2 μg/mL aprotinin, 1 μg/mL pepstatin and 10 μg/mL benzamidine) and phosphatase inhibitors (25 mMNaF, 100 mM Na3VO4, 1 mM EDTA and 30 μM Na4P207) using a Potter homogenizator and then passed sequentially through different caliber syringes. […] Protein concentration was determined using the BCA Protein Assay Kit (Pierce). […] The reactions were followed by incubation with anti-mouse, anti-goat or anti-rabbit IgG peroxidase conjugated (Pierce, Rockford, Ill.) and developed using an ECL kit (Western Lightning Plus ECL, PerkinElmer).
# [5] = test system: CA3-CA1 transmission in the hippocampus of APPswe/PS-1 mice; experiment: LTP by TBS in hippocampal CA1 slices from treated APPswe/PS-1 mice; format: in vivo; conditions: slices from the two sets (7- and 12-month-old) of treated APPswe/PS-1 mice
# [6] = 9 h treatment, of the 86 genes analyzed
# [7] = young APPswe/PS-1 mice, vs controls
structure (smiles),measurement,setting,value
"C=C1CC[C@@H]2C(C)(CO)[C@H](O)CC[C@@]2(C)C1C/C=C1/C(=O)OC[C@H]1O (stereo in doubt) [ANDRO, 3-(2-(Decahydro-6-hydroxy-5-(hydroxymethyl)-5,8a-dimethyl-2-methylenenaphthyl)ethylidene)dihydro-4-hydroxyfuran-2(3H)-one]",level of Aβ oligomers (A11 slot-blot),[1]; 7 month-old APPswe/PS-1 mice,did not show significant changes
same,levels of Aβ-oligomers (A11 slot blot),[1]; FIG. 3G (old APPswe/PS-1 mice per legend),did not show significant changes
same,PSD-95 and GluA2 levels,[2]; mature (12-month-old) Tg mice,increase of PSD-95 and GluA2 levels
same,total levels of pre-synaptic proteins SYP and VAMP,[2]; young APPswe/PS-1 mice,unaltered
same,"levels of post-synaptic proteins (Shank, GluN2B, GluA2, PSD-95)","[2]; young APPswe/PS-1 mice, hippocampus and cortex",significantly recovers the post-synaptic proteins
same,Cdh-1 gene expression,Wnt target genes,differential expression
same,number of Wnt target genes specifically modulated,Wnt target genes; [6],3 genes
same,number of changed Wnt target genes shared by ANDRO and 6-BIO,Wnt target genes; [6],4 genes
same,Ets2 gene expression,Wnt target genes; after Bonferroni correction,down-regulation of Ets2 gene
same,plaque size distribution (cumulative frequency),[3]; 7 month-old APPswe/PS-1 mice,shift in their distribution toward smaller plaque size
same,amyloid plaques stained with Th-S,"[3]; 7 month-old APPswe/PS-1 mice, cortex and hippocampus, vs untreated",reduction of amyloid plaques
same,amyloid deposit levels (amyloid burden area),"[3]; hippocampus or cortex, FIG. 3F (12 month-old mice per legend)",no change in amyloid deposit levels
same,immature plaques (type 1),[3]; [7],increase significantly
same,type 2a and 2c plaques in the total brain,[3]; [7],no significant differences
same,type 2b plaques,[3]; [7],significantly decreased
same,time at which total levels of β-catenin increased,"[4]; 5 μM ANDRO, Wnt3a conditioned medium or 10 nM 6-BIO, up to 1 h",15 min
same,rate of increase of GSK3β Ser-9 and decrease of Tyr-216 phosphorylation,[4]; compared to Wnt-3a treatment,faster
same,mobility shift (phosphorylation) of Dvl-3,"[4]; hippocampal slices, 1 h",does not induce a mobility shift of Dvl-3
same,LTP induction,[5],recovery in the capacity to induce a LTP; also recorded: have the property to induce a LTP that is maintained for 1 h
